From patent publication US10617656B2, “Methods of increasing the cytotoxicity of chemotherapeutic agents with multisubstrate inhibitors of histone, protein-Lys, polyamine acetylation, and polyamine metabolism” (Vanderbilt University, priority 2010, dated 2020)

Tested on: H358 lung cancer cells
Experiment: [3H]-thymidine incorporation (DNA synthesis) assay in H358 cells
Type: cell-based
Procedure: (A) Structures of 1a, and the acetylated side chain of a lysine residue within the polypeptide chain of a protein targeted by the acetylating enzyme (R1 and R2 are the main chain elements on both sides of the lysyl residue). (B) [^3H]-thymidine incorporation into DNA of H358 cells pulsed for 6 hrs at three different time points after the addition of increasing concentrations of 1a, i.e., at 6-12 hrs (12 hr curve), at 18-24 hours (24 hr curve), or at 42-48 hrs (48 hr curve). Incorporation is represented as a percentage relative to control (untreated) cells. (C) Cell cycle analysis of propidium iodide-stained cells harvested at various times after addition of 50 μM 1a. % of cells in G1, S, and G2 represents the average of two independent profiles. (D) Western analysis of histone H3 lysine 9 acetylation, histone H3 lysine 56 acetylation, histone H3 lysine 9 methylation, and total histone H3, before “c” or at the indicated times after addition of 50 μM 1a. Each lane represents 60 μg cellular protein.
Control cells were left untreated. […] Control cells were left untreated.
Cells were either labeled immediately before treatment (starting DNA synthesis rate), or subjected to the indicated treatments and then pulsed on successive days until day 4. DNA synthesis is represented as the percent of starting DNA synthesis rate. Viability was determined for each treatment condition 24 hours post-start of treatment by the trypan blue exclusion assay, with percentages of viable cells indicated to the right of the graph.
H358 cells (2,000/well) in 96-well plates were treated with 1, 10 or 50 μM of spd-1a, spd-2a, spd-3a, spm3, or spm2 for 12 hours. Triplicate wells of cells were pulsed 6 hours with 0.5 μCi [^3H]-thymidine (NEN, Boston Mass.) post-start of drug treatment, and harvested onto filter paper using a Brandel Harvester and subjected to scintillation counting. Untreated cells were pulsed from 0-6 hrs to establish the initial rate of incorporation.
Cells were plated in 96-well plates (2000 cells per well to insure conditions for exponential growth for untreated cells over the time course of the experiment) and exposed to the following treatments: 1a (50 μM); camptothecin (Sigma, St Louis, Mo. 5 nM, 18 hours); cisplatin (Platinol, obtained through local pharmacies, 2 μM, 1 hour 15 minutes), 5-fluorouracil (5FU, Adrucil™, obtained through local pharmacies, 2 μM, 1 hour 15 minutes), Taxotere (provided by the late Dr. Pierre Potier, 5 nM, 18 hours). UVC treatment (40 J/m^2) using a Stratalinker™, Stratagene, La Jolla, Calif.) was carried using medium lacking phenol red. At 0-6 hr, 18-24 hr (day 1), 42-48 hr […], 66-72 hr (day 3), and 90-96 hr (day 4) post-start of treatment, triplicate wells were incubated with 0.5 μCi [^3H]-thymidine (NEN, Boston Mass.), harvested onto filter paper, and subjected to scintillation counting. Trypan blue exclusion assays for cell membrane integrity were carried out as known in the art.
The present inventors used 96-well viability assays as described in Saadatmandi et al (Cancer Gene Therapy (2002) 9:[…]) to examine the effect of 1a on DNA synthesis in H358 cells, as well as the combined effects of 1a and chemotherapeutic agents. H358 cells were plated in 96-well plates at 3000 cells per well. […]

CC(C)(COP(=O)(O)OP(=O)(O)OC[C@H]1O[C@@H](n2cnc3c(N)ncnc32)[C@H](O)[C@@H]1OP(=O)(O)O)[C@@H](O)C(=O)NCCC(=O)NCCSCC(=O)NCCCNCCCCN [1a, spermidine[N1]-CoA]
sensitization to 5-FU (50 μM 1a + 5FU 2 μM): sensitized

CC(=O)NCCSCC(=O)NCCCNCCCCNCCCN [spm-3]
inhibition of DNA synthesis (1, 10 or 50 μM, 12 hours): inhibit DNA synthesis
